Toxic doses and inconclusive results are not listed.

From PubChem BioAssay AID330 (DTP/NCI, 2004) come the findings set out here.

In the assay the test system is P388 leukemia ip, CD2F1 mice, survival T/C. Description: NCI In Vivo Anticancer Drug Screen. Data for tumor model P388 Leukemia (intraperitoneal) in CD2F1 (CDF1) mice. The note with it: endpoint: median survival time, higher = longer survival. In short, it runs like this: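 Mice carrying the transplanted tumor received test compound or vehicle. Survival was recorded in each group, and the value is the treated-group measurement divided by that of the vehicle-treated control group.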

`COC(=O)C1C(O)CN2CCCC12C` (configuration not stated): the T/C was 107 % of control (dose: 100.0 mg/kg/injection, schedule: Q04DX003 (ip), vehicle: saline with Tween-80); 97 % of control (dose: 200.0 mg/kg/injection, schedule: Q04DX003 (ip), vehicle: saline with Tween-80); 108 % of control (dose: 400.0 mg/kg/injection, schedule: Q04DX003 (ip), vehicle: saline with Tween-80).
For the molecule `CCN(CC)c1ccc(CCc2ccc(N(CC)CC)c3cccnc23)c2ncccc12`, the T/C (dose: 50.0 mg/kg/injection, schedule: Q01DX005 (ip), vehicle: Klucel (hydroxypropylcellulose) (HPC)) was 99 % of control; the T/C (dose: 100.0 mg/kg/injection, schedule: Q01DX005 (ip), vehicle: Klucel (hydroxypropylcellulose) (HPC)) was 112 % of control; the T/C (dose: 200.0 mg/kg/injection, schedule: Q01DX005 (ip), vehicle: Klucel (hydroxypropylcellulose) (HPC)) was 94 % of control.
For the molecule `O=C1CS/C(=N\C(=O)Nc2cccc(C(F)(F)F)c2)N1`, the T/C is, setting by setting: (dose: 12.5 mg/kg/injection, schedule: Q01DX009 (ip), vehicle: saline) 103 % of control; (dose: 25.0 mg/kg/injection, schedule: Q01DX009 (ip), vehicle: saline) 94 % of control; (dose: 50.0 mg/kg/injection, schedule: Q01DX009 (ip), vehicle: saline with Tween-80) 87 % of control.
In the case of `O=C1CS(=O)(=O)CN1N1CS(=O)(=O)CC1=O`, the T/C by setting is: (dose: 50.0 mg/kg/injection, schedule: Q01DX005 (ip), vehicle: saline with Tween-80) 102 % of control; (dose: 100.0 mg/kg/injection, schedule: Q01DX005 (ip), vehicle: saline with Tween-80) 98 % of control; (dose: 200.0 mg/kg/injection, schedule: Q01DX005 (ip), vehicle: saline with Tween-80) 98 % of control.
Consider `CCCCOP(O)(=S)OCCCC.[Sm]`, for which the T/C (dose: 100.0 mg/kg/injection, schedule: Q01DX001 (ip), vehicle: saline with Tween-80) is 92 % of control and the T/C (dose: 200.0 mg/kg/injection, schedule: Q01DX001 (ip), vehicle: saline with Tween-80) is 116 % of control.
For the molecule `O=C1C=CC2(C=C1)CCN(C(=O)C(F)(F)F)Cc1cc3c(cc12)OCO3`, the T/C (dose: 100.0 mg/kg/injection, schedule: Q04DX002 (ip), vehicle: saline with Tween-80) is 97 % of control; the T/C (dose: 200.0 mg/kg/injection, schedule: Q04DX002 (ip), vehicle: saline with Tween-80) was 91 % of control; the T/C (dose: 400.0 mg/kg/injection, schedule: Q04DX002 (ip), vehicle: saline with Tween-80) is 93 % of control.
For the molecule `S=C(Nc1cc(Cl)c(Cl)cc1Cl)SCc1ccccc1`, the T/C by setting is: (dose: 50.0 mg/kg/injection, schedule: Q01DX009 (ip), vehicle: suspension in saline) 93 % of control; (dose: 100.0 mg/kg/injection, schedule: Q01DX009 (ip), vehicle: suspension in saline) 93 % of control.
Take `c1ccc(C2C(c3ccccn3)C(c3ccccn3)C2c2ccccn2)nc1` (configuration not stated): the T/C (dose: 100.0 mg/kg/injection, schedule: Q01DX001 (ip), vehicle: Klucel (hydroxypropylcellulose) (HPC)) is 95 % of control; the T/C (dose: 200.0 mg/kg/injection, schedule: Q01DX001 (ip), vehicle: Klucel (hydroxypropylcellulose) (HPC)) is 94 % of control; the T/C (dose: 400.0 mg/kg/injection, schedule: Q01DX001 (ip), vehicle: Klucel (hydroxypropylcellulose) (HPC)) is 95 % of control.
